# Test results as given in patent US10899754B2, “Modulators of indoleamine 2,3-dioxygenase” (GLAXOSMITHKLINE INTELLECTUAL PROPERTY DEVELOPMENT LIMITED, priority 2016, dated 2021).
# Legend:
# [1] = test system: human peripheral blood mononuclear cells (PBMC); test: PBMC cytotoxicity assay (CellTiter-Glo); format: cell-based; conditions: 2 days, pCC50
# Procedure, shortened: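 % cytotoxicity was taken from CellTiter-Glo luminescence, using wells without cells and stimulated DMSO wells as references, and fitted by four-parameter curve to give XC50. Cells were human PBMC at 50,000 per well, activated with 100 ng/ml IFN-γ plus 50 ng/ml LPS. Incubation with 11-point, 3-fold dilution series ran for 2 days at 37 °C.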
# [2] = biological target: indoleamine 2, 3-dioxygenase (IDO1) (Homo sapiens, UniProt P14902); test: IDO1 PBMC RapidFire MS assay (kynurenine detection by mass spectrometry); format: cell-based; set-up: to induce the expression of indoleamine 2, 3-dioxygenase (IDO1); host or cells: human PBMC stimulated with IFN-gamma and LPS; conditions: human PBMC stimulated with IFN-γ and LPS, 2 days, pIC50, read-out: PBMC PXC50 (converted)
# Chain of indoleamine 2, 3-dioxygenase (IDO1) (P14902 whole entry): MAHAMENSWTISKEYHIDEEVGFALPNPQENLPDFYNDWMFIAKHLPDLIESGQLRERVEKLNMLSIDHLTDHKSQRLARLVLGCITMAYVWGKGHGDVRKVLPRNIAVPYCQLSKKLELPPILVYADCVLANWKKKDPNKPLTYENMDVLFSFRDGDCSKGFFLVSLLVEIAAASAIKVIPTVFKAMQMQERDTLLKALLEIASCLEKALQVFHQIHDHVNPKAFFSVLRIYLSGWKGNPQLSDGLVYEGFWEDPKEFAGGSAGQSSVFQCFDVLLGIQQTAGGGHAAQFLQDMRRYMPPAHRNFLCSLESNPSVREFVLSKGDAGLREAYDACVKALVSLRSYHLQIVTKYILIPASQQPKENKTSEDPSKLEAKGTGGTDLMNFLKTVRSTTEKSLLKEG
# Procedure, shortened: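 Kynurenine output, read by RapidFire mass spectrometry as ratio to an internal standard, was measured after 2-day compound exposure (11-point, 3-fold dilutions) of human PBMCs induced with 100 ng/ml IFN-γ and 50 ng/ml LPS. Cell viability tracked alongside via ATP luminescence; XC50 from curve fitting.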
SMILES,PBMC TOX PXC50 [1],IC50 [2]
"CC(C)CN(CCCCCNC(=O)OC1CC/C=C/CCC1)c1ccc(C(C)CC(=O)O)cc1Nc1nc(C(F)(F)F)ns1 (centres unmarked) [example 259, 3-(4-{[5-({[(4E)-cyclooct-4-en-1-yloxy]carbonyl}amino)pentyl](2-methylpropyl)amino}-3-{[3-(trifluoromethyl)-1,2,4-thiadiazol-5-yl]amino}phenyl)butanoic acid]",<4.3,100 nM
"CO[C@H]1CC[C@H](N(CC(C)C)c2ccc([C@H](C)CC(=O)O)cc2Nc2nc(C(F)(F)F)ns2)CC1 [Example 50, (R)-3-(4-(isobutyl((1r,4R)-4-methoxycyclohexyl)amino)-3-((3-(trifluoromethyl)-1,2,4-thiadiazol-5-yl)amino)phenyl)butanoic Acid]",<5,1.58 nM
"CC(C)CN(c1ccc([C@H](C)CC(=O)O)cc1N(c1cnc(C(=O)O)nc1)c1cnc(C(=O)O)nc1)C1CCOCC1 [example 265, 5-({5-[(2R)-1-carboxypropan-2-yl]-2-[(2-methylpropyl)(oxan-4-yl)amino]phenyl}(2-carboxypyrimidin-5-yl)amino)pyrimidine-2-carboxylic acid]",<5,> 10000 nM
"CC(C)CN(c1ccc([C@H](C)CC(=O)O)cc1Nc1cnc(C(N)=O)nc1)C1CCOCC1 [example 263, (3R)-3-{3-[(2-carbamoylpyrimidin-5-yl)amino]-4-[(2-methylpropyl)(oxan-4-yl)amino]phenyl}butanoic acid]",<5,501 nM
"CC(C)CN(c1ccc([C@H](C)CC(=O)O)cc1Nc1ccc(C(F)(F)F)nn1)C1CCOCC1 [Example 18, (R)-3-(4-(isobutyl(tetrahydro-2H-pyran-4-yl)amino)-3-((6-(trifluoromethyl)pyridazin-3-yl)amino)phenyl)butanoic Acid]",<5,2 nM
"CC(C)CN(c1ccc([C@H](C)CC(=O)O)cc1Nc1ccc(C(N)=O)nc1)C1CCOCC1 [example 239, (3R)-3-{3-[(6-carbamoylpyridin-3-yl)amino]-4-[(2-methylpropyl)(oxan-4-yl)amino]phenyl}butanoic acid]",<5,25.1 nM
"CO[C@H]1CC[C@@H](N(CC(C)C)c2ccc([C@H](C)CC(=O)O)cc2Nc2ccc(Cl)cn2)CC1 [Example 47, (R)-3-(3-((5-chloropyridin-2-yl)amino)-4-(isobutyl((1s,4S)-4-methoxycyclohexyl)amino)phenyl)butanoic Acid]",<5,0.794 nM
"CO[C@H]1CC[C@H](N(CC(C)C)c2ccc([C@H](C)CC(=O)O)cc2Nc2nc(Cl)ns2)CC1 [Example 54, (R)-3-(3-((3-chloro-1,2,4-thiadiazol-5-yl)amino)-4-(isobutyl((1r,4R)-4-methoxycyclohexyl)amino)phenyl)butanoic Acid]",<5,2 nM
"COCc1ccc(Nc2cc([C@H](C)CC(=O)O)ccc2N(CC(C)C)[C@H]2CC[C@@H](OC)CC2)nc1 [Example 60, (R)-3-(4-(isobutyl((1s,4S)-4-methoxycyclohexyl)amino)-3-((5-(methoxymethyl)pyridin-2-yl)amino)phenyl)butanoic Acid]",<5,10 nM
"CO[C@H]1CC[C@H](N(CC(C)C)c2ccc([C@H](C)CC(=O)O)cc2Nc2n[nH]c(C3CC3)n2)CC1 (racemic) [example 221, (3RS)-3-{3-[(5-cyclopropyl-1H-1,2,4-triazol-3-yl)amino]-4-[(2-methylpropyl)[(1rs&,4rs&)-4-methoxycyclohexyl]ami-no]phenyl}butanoic acid]",<5,39.8 nM
"CO[C@H]1CC[C@H](N(CC(C)C)c2ccc([C@H](C)CC(=O)O)cc2Nc2n[nH]c(C(N)=O)n2)CC1 (racemic) [example 223, (3RS)-3-{3-[(5-carbamoyl-1H-1,2,4-triazol-3-yl)amino]-4-[(2-methylpropyl)[(1rs&,4rs&)-4-methoxycyclohexyl]ami-no]phenyl}butanoic acid]",<5,501 nM
"CC(C)CN(c1ccc([C@H](C)CC(=O)O)cc1Nc1ncc(C#N)cn1)C1CCOCC1 [example 254, (3R)-3-{3-[(5-cyanopyrimidin-2-yl)amino]-4-[(2-methylpropyl)(oxan-4-yl)amino]phenyl}butanoic acid]",<5,126 nM
"CC(C)CN(c1ccc(C(C)CC(=O)O)cc1Nc1nnc(C(=O)N(C)C)s1)C1CCCCC1 (centres unmarked) [example 244, 3-{4-[cyclohexyl(2-methylpropyl)amino]-3-{[5-(dimethylcarbamoyl)-1,3,4-thiadiazol-2-yl]amino}phenyl}butanoic acid]",5.7,50.1 nM
"CC(C)CN(c1ccc([C@H](C)CC(=O)O)cc1Nc1n[nH]c(C#N)n1)C1CCOCC1 [example 226, (3R)-3-{3-[(5-cyano-1H-1,2,4-triazol-3-yl)amino]-4-[(2-methylpropyl)(oxan-4-yl)amino]phenyl}butanoic acid]",<5,126 nM
CNC(=O)c1nnc(Nc2cc(C(C)CC(=O)O)ccc2N(CC(C)C)C2CCCCC2)s1 (centres unmarked) [Example 79],<5,5.01 nM
"CO[C@H](C)CN(C[C@@H](C)OC)c1ccc([C@H](C)CC(=O)O)cc1Nc1nc(C(F)(F)F)ns1 [example 258, (3R)-3-(4-{bis[(2R)-2-methoxypropyl]amino}-3-{[3-(trifluoromethyl)-1,2,4-thiadiazol-5-yl]amino}phenyl)butanoic acid]",<5,79.4 nM
"CO[C@H]1CC[C@@H](N(CC(C)C)c2ccc([C@H](C)CC(=O)O)cc2Nc2nc(C(F)(F)F)c[nH]2)CC1 [Example 62, (R)-3-(4-(isobutyl((cis)-4-methoxycyclohexyl)amino)-3-((4-(trifluoromethyl)-1H-imidazol-2-yl)amino)phenyl)butanoic Acid]",<5,3.98 nM
"CC(C)CN(c1ccc([C@H](C)CC(=O)O)cc1Nc1ncc(Cl)cn1)C1CCOCC1 [example 231, (3R)-3-{3-[(5-chloropyrimidin-2-yl)amino]-4-[(2-methylpropyl)(oxan-4-yl)amino]phenyl}butanoic acid]",<5,25.1 nM
"CC(C)CN(c1ccc(C(C)NC(N)=O)cc1Nc1nc(C(F)(F)F)ns1)C1CCOCC1 (centres unmarked) [example 249, (1-{4-[(2-methylpropyl)(oxan-4-yl)amino]-3-{[3-(trifluoromethyl)-1,2,4-thiadiazol-5-yl]amino}phenyl}ethyl) urea]",<5,20 nM
"CC(C)CN(c1cc(F)c([C@H](C)CC(=O)O)cc1Nc1ccc(Cl)cn1)C1CCOCC1 [Example 36, (R)-3-(5-((5-chloropyridin-2-yl)amino)-2-fluoro-4-(isobutyl(tetrahydro-2H-pyran-4-yl)amino)phenyl)butanoic Acid]",<5,0.631 nM
"CC(C)CN(c1ccc(C(C)CC(=O)O)cc1Nc1nnc(C(N)=O)s1)C1CCCCC1 (centres unmarked) [Example 80, 3-(3-((5-carbamoyl-1,3,4-thiadiazol-2-yl)amino)-4-(cyclohexyl(isobutyl)amino)phenyl)butanoic]",<5,1.58 nM
"CC(C)CN(c1ccc([C@H](C)CC(=O)O)cc1Nc1ncc(C(N)=O)cn1)C1CCOCC1 [example 248, (3R)-3-{3-[(5-carbamoylpyrimidin-2-yl)amino]-4-[(2-methylpropyl)(oxan-4-yl)amino]phenyl}butanoic acid]",<5,> 10000 nM
"CC(C)CN(c1ccc([C@H](C)CC(=O)O)cc1Nc1ccc(C#N)nn1)C1CCOCC1 [Example 24, (R)-3-(3-((6-cyanopyridazin-3-yl)amino)-4-(isobutyl(tetrahydro-2H-pyran-4-yl)amino)phenyl)butanoic Acid]",<5,2.51 nM
"COC(=O)c1c[nH]c(Nc2cc([C@H](C)CC(=O)O)ccc2N(CC(C)C)C2CCOCC2)n1 [Example 29, (R)-3-(4-(isobutyl(tetrahydro-2H-pyran-4-yl)amino)-3-((4-(methoxycarbonyl)-1H-imidazol-2-yl)amino)phenyl)butanoic acid]",<5,6.31 nM
"CC(C)CN(c1ccc([C@H](C)CC(=O)O)cc1Nc1cnc(Cl)cn1)C1CCOCC1 [Example 12, (R)-3-(3-((5-chloropyrazin-2-yl)amino)-4-(isobutyl(tetrahydro-2H-pyran-4-yl)amino)phenyl)butanoic Acid]",<5,1 nM
"CC(C)CN(c1ccc([C@H](C)CC(=O)O)cc1Nc1nc(Cl)ns1)C1CC2(CCC2)C1 [Example 98, (R)-3-(3-((3-chloro-1,2,4-thiadiazol-5-yl)amino)-4-(isobutyl(spiro[3.3]heptan-2-yl)amino)phenyl)butanoic Acid]",<5,7.94 nM
"CC(C)CN(c1ccc(C(C)N)cc1Nc1nc(C(F)(F)F)ns1)C1CCOCC1 (centres unmarked) [example 234, 4-(1-aminoethyl)-N1-(2-methylpropyl)-N1-(oxan-4-yl)-N2-[3-(trifluoromethyl)-1,2,4-thiadiazol-5-yl]benzene-1,2-diamine]",<5,501 nM
"CC(C)CN(c1ccc([C@H](C)CC(=O)O)cc1Nc1ccc(C(N)=O)nn1)C1CCOCC1 [example 253, (3R)-3-{3-[(6-carbamoylpyridazin-3-yl)amino]-4-[(2-methylpropyl)(oxan-4-yl)amino]phenyl}butanoic acid]",<5,316 nM
